Experiments:
PC-3 cells [1] = assay: Apoptosis assay by ELISA plus; type: cell-based, human; conditions: 22.5 μM to 90 μM, 72 hours
Description: The three polypeptides (SEQ ID NO: 4, SEQ ID NO: 5 and SEQ ID NO 6) and native PSP94 used here as a positive control were tested in ELISA plus assay to measure cell death through apoptosis. Briefly, the ELISA plus assay is a sandwich enzyme immunoassay able to measure mono- and oligonucleosomes present in the cytoplasmic fraction of cell lysate using two antibodies, one directed against DNA and the other directed against histones. The apoptotic cell death is characterized by activation of endogenous endonucleases (e.g., calcium- and magnesium-dependant), which cleave double-stranded DNA at the most accessible internucleosomal linker region, generating mono- and oligonucleosomes. The enrichment of mono- and oligonucleosomes in the cytoplasm of the apoptotic cells is due to the fact that DNA degradation occurs several hours before plasma membrane breakdown.
Four thousand cells were seeded in Costar 96 well cell culture flat bottom plates in RPMI supplemented media containing 50 μg/ml of bovine serum albumin (BSA) and 0.1 μM FeSO4. The PC-3 cells were treated with various concentrations (22.5 μM to 90 μM) of polypeptides for 72 hours. Apoptosis assay was done as per manufacturer's instructions using the ApopTag kit (Boeringher Mannheim).

PC-3 cells [2] = assay: DNA fragmentation assay (DNA ladder, apoptosis); type: cell-based, human; conditions: various concentrations, 72 hours
Description: Cell apoptosis result in DNA fragmentation can be evaluated by the presence of a DNA ladder visualized when DNA is run on a 1.2% agarose gel. DNA ladder assay (apoptosis assay) was performed following exposure of PC-3 to various concentrations of the polypeptides for 72 hours. The polypeptides that were used in this particular experiment are polypeptide 7-21 (SEQ ID NO: 4), polypeptide PCK3145 (SEQ ID NO: 5) and polypeptide 76-94 (SEQ ID NO: 6). […] This effect was especially evident following treatment with PCK3145 (SEQ ID NO: 5), which is illustrated by FIG. 7. Lane 1 of the gel illustrated in FIG. 7 represents a lambda HindIII digest standard.
Apoptosis of PC-3 cells, following a 72 hours exposure to PCK3145 at 500 μg/ml concentration, was evaluated in supplemented media by DNA fragmentation assay. Doxorubicin was used as a reference positive control. Untreated cells and PCK3145-treated cells were harvested and the DNA was isolated. Isolated DNA was run on a 1.2% agarose gel containing Ethidium Bromide (EtBr). […] Lane 1 of the gel illustrated in FIG. 25 represents the DNA marker (100 base pair DNA ladder). Lane 2 of the gel illustrated in FIG. 25 represents a control of untreated PC-3 cells.

[3] = test system: human prostate cancer cells PC-3; assay: MTS assay, growth inhibitory effect on PC-3 cells; type: cell-based; conditions: 72 hours
Text: Cell proliferation was monitored on PC-3 cells using the MTS/PMS (phenazine methosulfate) kit (Promega), which primarily measures mitochondrial activity of live cells. The basic principle of this method involves the fact that the mitochondrial enzymes of the live cells metabolize the MTS/PMS dyes forming a brown colored precipitate which can be measured as optical density (OD) by absorption at 490 nm in a spectrophotometer. Therefore, the OD values are proportional to the number of living cells. In addition, monitoring of cell morphology was also performed. Cell morphology would be indicative of their health status. For example, viable cells would appear adherent and spread out whereas dead cells would be in suspension in the media and would appear granular and round.
PC-3 cells (ATCC, Lot AT06) used in these experiments were at a passage number lower or equal to 70 (n≧70). Cells were seeded in Costar 96 well cell culture flat bottom plates in RPMI supplemented media containing 50 μg/ml of bovine serum albumin (BSA) and 0.1 μM FeSO4. Peptide was diluted in the same media. Cells were continuously exposed to the polypeptides of the present invention for 72 hours without changing media. Native PSP94 or rHuPSP94 concentrated two fold were directly added to wells and diluted to 1× in order to minimize cell manipulation and avoid detachment.
Native PSP94, rHuPSP94, polypeptide 22-36 and PB111 polypeptide (scrambled polypeptide) were also included in this experiment as controls. Cell proliferation assay was performed on either PC-3 cells or normal fibroblasts (used here as control) using the MTS/PMS kit (Promega). Four thousand cells (FIGS. 9 and 10) or three thousand (FIG. 11) cells were seeded in Costar 96 well cell culture flat bottom plates in RPMI supplemented media containing 50 μg/ml of bovine serum albumin (BSA) and 0.1 μM FeSO4. In addition, monitoring of cell morphology was also performed.
This assay measures the mitochondrial activity of the live cells. The basic principle of this method involves the fact that the mitochondrial enzymes of the live cells metabolize the MTS/PMS dyes forming a brown colored precipitate which can be measured as optical density (OD) by absorption at 490 nm in a spectrophotometer. Therefore, the OD values are proportional to the number of living cells.
In addition, a visual observation of the cells was also done to check the cell morphology, which could also be indicative of cell growth. The following conditions for MTS assay were used: PC-3 (ATCC, Lot AT06), passage number n≧70, cell line adapted to grow in serum-free OPTI-MEM and in RPMI supplemented with BSA (50 μg/ml) and Ferrous Sulfate (0.1 μM), continuous exposure for up to 72 hours without changing media (i.e., adding PCK3145 at 2× concentration directly to wells and diluting it 1:2 to 1× to minimize cell manipulation and avoid detachment).

[4] = test system: PC-3 human prostate tumor; assay: PC-3 human prostate tumor in nude mice, subcutaneous treatment for 14 days (Examples 10 and 11); type: in vivo, Nude mouse; conditions: 10 μg/kg body weight per day s.c.
Description: PC-3 human prostate tumor was obtained from ATCC (ATCC 1435). PC-3 cells were grown in RPMI media containing 10% (v/v) of fetal calf serum and were harvested in the logarithmic phase of growth by trypsinization. Cells were centrifuged at 1200 rotation per minute (rpm) and washed three timed with Hanks balanced salt solution (HBSS). Following washing, cells were counted and adjusted to a concentration of 1×10^7 cells/ml in HBSS. A 0.1 ml volume of tumor cell inoculum containing 1×10^6 cells was administered subcutaneously into the two opposite flank region of each Nude mouse (Nu/Nu, BALE/c background). Tumor growth was monitored for approximately 18 days. Once tumor growth has been established (volume of tumor reached a volume of 50 mm^3) treatment with rHuPSP94 (SEQ ID NO: 2) was initiated and was performed once a day for 14 days by the subcutaneous route. Based on the assigned treatment groups illustrated in table 4.
PC-3 human prostate tumor (ATCC 1435) obtained from ATCC was implanted bilaterally into nude mice and tumor growth was monitored for approximately 18 days. PC-3 cells were injected once subcutaneously into each flank of the mice. Once tumor growth has been established (i.e., volume of tumor reached 0.25 to 0.50 cm^3) the treatment with decapeptide (SEQ ID NO: 3), native PSP94 (SEQ ID NO: 1) and control scrambled polypeptide PB111 was initiated and was performed once a day for 14 days by the subcutaneous route based on the treatment groups (randomly assigned) illustrated in table 5.

PC-3 cells [5] = assay: clonogenicity assay (colony formation); type: cell-based, human
Description: The synthetic decapeptide (SEQ ID NO: 3) has been shown herein to mimic the biological activity of native PSP94 (nPSP94) (SEQ ID NO: 1) and therefore its effect on the PC-3 cells was studied in clonogenicity assay (colony formation). Cells were seeded in Costar 96 well cell culture flat bottom plates in RPMI supplemented media containing 50 μg/ml of bovine serum albumin (BSA) and 0.1 μM FeSO4. Clonogenicity was evaluated for PC-3 cells grown in the presence of various concentration of the decapeptide after 9 days of culture (FIG. 4a). A parallel experiment was performed with various concentration of nPSP94 using the same experimental conditions (FIG. 4b). Other experiments evaluating clonogenicity was performed with the decapeptide (FIG. 5a) or nPSP94 (FIG. 5b) after 21 days of culture as well as after 10 days of culture (FIG. 6a: Decapeptide and FIG. 6b: nPSP94).

polypeptide 76-94: PSP94 derived synthetic polypeptide from the carboxy terminus end, SEQ ID NO: 6 (IVVEKKDPKKTCSVSEWII; Polypeptide 76-94)
apoptotic cell death effect (PC-3 cells [1]): dose dependent increase in the apoptotic cell death effect
DNA laddering effect (PC-3 cells [2]): induced a DNA laddering effect characteristic of apoptosis
growth inhibition of PC-3 cells (FIG. 10) [3]: significant growth inhibition

decapeptide: synthetic decapeptide as set forth in SEQ ID NO: 3, mimics the biological activity of native PSP94 (YTCSVSEPGI; decapeptide)
tumor growth (tumor volume) [4]: significant (p<0.05) tumor growth reduction
decrease in colony number (PC-3 cells [5]; 1 μg/ml): 40%
decrease in colony number (PC-3 cells [5]; 10 μg/ml): up to 60%
